In ChEMBL document CHEMBL1121622, “Urinary metabolites of timolol from humans and laboratory animals. Syntheses and beta-adrenergic blocking activities” (1980):

Columns and labels:
Conditions in all cases: Canis lupus familiaris
[1] = system: Canis familiaris; experiment: Beta-adrenergic blocking activity in anesthetized dog, by the inhibition of isoproterenol -induced bronchodilatation after iv administration; type: functional
[2] = system: Canis familiaris; experiment: Beta-adrenergic blocking activity in anesthetized dog, by the inhibition of isoproterenol -induced hypotension after iv administration; type: functional
[3] = system: Canis familiaris; experiment: Beta-adrenergic blocking activity in anesthetized dog, by the inhibition of isoproterenol -induced tachycardia after iv administration; type: functional
[4] = system: Canis familiaris; experiment: Beta-adrenergic blocking activity in anesthetized dog, by the inhibition of isoproterenol -induced bronchodilatation after iv administration; No effect at dose up to 1 to 3 mg/kg iv; type: functional, organism-based
[5] = system: Canis familiaris; experiment: Beta-adrenergic blocking activity in anesthetized dog, by the inhibition of isoproterenol -induced hypotension after iv administration; No effect at dose up to 1 to 3 mg/kg iv; type: functional, organism-based
[6] = system: Canis familiaris; experiment: Beta-adrenergic blocking activity in anesthetized dog, by the inhibition of isoproterenol -induced tachycardia after iv administration; No effect at dose up to 1 to 3 mg/kg iv; type: functional, organism-based
[7] = system: Canis familiaris; experiment: Beta-adrenergic blocking activity in anesthetized dog, by the inhibition of isoproterenol -induced bronchodilatation after iv administration; No effect at dose up to 1 to 3 mg/kg; type: functional, organism-based

Structure (SMILES)	ED50 [1] [µg/kg]	ED50 [2] [µg/kg]	ED50 [3] [µg/kg]	ED50 [4]	ED50 [5]	ED50 [6]	ED50 [7]
CC(C)(C)NC[C@H](O)COc1nsnc1N1CCOCC1 [TIMOLOL]	0.9	2.8	5.5				
CC(C)(C)NCC(O)COc1nsnc1NCCO (configuration not stated)	5.4	19.9	38.1				
O=C(O)C(O)COc1nsnc1N1CCOCC1 (configuration not stated)				No effect	No effect	No effect	
CC(C)(C)NCC(O)COc1nsnc1N(CCO)CC(=O)O (configuration not stated)					No effect	No effect	No effect
